# US20230181535A1, “UBIQUITIN-LIGASE INHIBITORS FOR THE TREATMENT OF CANCER” (FUNDACIÓN PROFESOR NOVOA SANTOS, priority 2020, published 2023)
# Entries after “also recorded” stand apart in the source; their conditions may differ.
# Columns and labels:
# [1] = system: LoVo colon tumour cell line; experiment: MTT cell viability assay, LoVo; format: cell-based; conditions: increasing range of concentrations
# Procedure: (§1) For cytotoxicity assays, 1×10^4 cells were seeded per well into a 96-well plate. After 24 h cells were treated with the indicated inhibitors for 72 h and a MTT colorimetric cell viability assay was performed following manufacturer's instructions (Sigma Aldrich, St Louis, Mo.). Absorbance was measured at 570 and 630 nm using a Multiskan Plus Reader (Nanoquant Infinite M200 Tecan Trading AG, Switzerland). Dose-response curves were designed with Graph Pad Prism Software and the half-maximal inhibitory concentration (IC50) values were calculated. Represented data are the mean±SEM of at least three independent experiments with six replicates per condition.
# [2] = system: normal epithelial MDCK cell line; experiment: MTT cell viability assay, MDCK; format: cell-based; conditions: compared with Hakai-MDCK
# Procedure: as §1
# [3] = system: non-transformed epithelial MDCK cells; experiment: BrdU proliferation assay, MDCK; format: cell-based; conditions: 48 h
# Procedure: For BrdU assays, 1×10^4 of indicated cells were plated per well into a 96-well plate. After 24 h, cells were treated with the indicated inhibitors for 48 h. Three independent experiments were plated with six replicates per each condition. Cells were treated with […] BrdU for 2 h. BrdU incorporation into newly synthesized DNA was measured using a cell proliferation colorimetric immunoassay kit according to the manufacturer's instructions (Roche, Switzerland). Results are expressed as mean±S.D. Results are represented as percentage of positive cells (mean±S.D) of three independent experiments.
# HT29 cells = experiment: Migration assay, HT29; format: cell-based, human; conditions: HT-29; treated 48 h
# Procedure: For invasion assays, cells were treated with Hakin-1 or DMSO as vehicle for 48 h using 1% FBS during the last 24 hours. 3×10^5 MDCK, MDCK-Hakai or LoVo cells were seeded in a cell invasion chamber (Cell invasion assay kit, Chemicon International) containing medium with 2% FBS. After 72 hours for MDCK and MDCK-Hakai Invasive and 16 h for LoVo cells, invasive cells invaded that reach the lower chamber containing 30% FBS were fixed and stained with crystal violet (Sigma Aldrich, St Louis, Mo.) following the manufacturer's specifications. For migration assays, HT29 cells were cultured with Hakin-1 or DMSO as vehicle for 48 h, using medium without serum the last 24 h. In the cell migration chamber were seeded 3×10^5 HT29 cells (Cell migration kit, Millipore, Bedford, Mass.) containing medium without serum. After 16 h, migrated cells in the lower chamber containing serum with 30% FBS were stained with crystal violet and counted following the manufacturer's specifications. For both invasion and migration assays cells were counted in five fields photographed with an Olympus microscope using a 20× objective, experiments were performed in triplicates for each condition and the assays were repeated at least three times. Results are expressed as mean±SD.
# [4] = system: Hakai-MDCK xenograft tumours; experiment: Tumour xenograft model (Hakai-MDCK cells in nude mice); format: in vivo
# Procedure: Xenografts experiments were performed in Experimental Surgery Unit—Technological Training Center from INIBIC in compliance with the European Community Law (86/609/EEC) and the Spanish law (R.D. 53/2013). The experiment was approved by the Ethics Committee for Animal Experimentation of Xerencia de Xestion Integrada da Coruna (XXIAC). Mice were in a 12/12 hours light/dark cycle with water and food available ad libitum. Six weeks old athymic nu/nu mice were randomly distributed in groups. One million of MDCK cells, resuspended in DMEM without serum and antibiotic, were subcutaneously inoculated in both flanks in two groups of 3 animals. The same number of Hakai-MDCK cells were injected in two groups of 4 animals. […] Then, half of the animals were treated with Hakin-1 (5 mg/kg) and the other half with the same concentration of DMSO every 3 days. Tumour outgrowth was monitored twice a week taking measurements of tumour length (L) and width (W) with an electronic calipter. Tumour volume was calculated as pLW2/6. Forty days after inoculation, animals were sacrificed. Tumours, lungs, kidneys and livers were collected and fixed in 4% PFA and embedded in paraffin blocks for histology and/or immunohistochemistry (IHC) analyses.
# Tumours and tissues were deparaffinised, rehydrated and stained with haematoxylin and eosin (H&E) as previously described. Tumour sections (4 μm) were also deparaffinised and hydrated for immunohistochemistry. Antigen retrieval was carried by heating the samples (2100 Retriever; PickCell Laboratories) in citrate buffer (Dako REAL, Denmark) or in EDTA buffer. Then, endogenous peroxidase activity was blocked with peroxidase blocking (DakoCytomation, Denmark). Samples were blocked and permeabilized with 0.2% BSA and 0.1% Tx-100 for 1 hour and incubated with the indicated primary antibodies overnight at 4° C. in a wet chamber. Slides were incubated for 1 hour at room temperature with the secondary antibody and detection was carried our using DAB (DakoReal Envision kit) according to manufacturer instructions. Finally, nuclei were counterstained with Gill's Hematoxylin and mounted with DePeX. Pictures were taken with an Olympus microscope. Quantification of images was performed taken 5 photographs of each animal with Image J programme and the represented results are shown as mean±SEM. The number of mitosis was counted in sections stained with H&E. In this case, ten pictures of each tumour were taken with an Olympus BX50 microscope (objective 40×) and the number of mitosis was counted manually. Results are represented as mean±SEM and a representative photograph is shown for each condition.
# Real-time PCR was used to study the presence of metastasis in the lung mice. Primers for HA epitope and Hakai present in ectopic HA-tagged Hakai expressed in MDCK-Hakai cells (5′-[…]-3′; 5″-[…]-3′) were used for the quantification. Primers for mouse apolipoprotein B (apob) (5′-[…]-3′; 5′-[…]-3′) were used as endogenous control. MDCK cell line was used as negative control. Lung DNA was extracted from 10-15 sections of paraffin blocks (4 μm) using with QIAamp DNA Mini Kit (Qiagen). The amplification and quantification of DNA was carried by quantitative PCR in technical triplicates by using a LightCycler 480 real-time lightcycler (Roche). Relative DNA levels were calculated by 2^−ΔΔCt method.
# Tissue sections from tumours were deparaffinised and rehydrated using standard protocols. The slides were rinsed twice with PBS and treated with citrate buffer buffer (Dako REAL, Denmark) in microwave at 350 W for 5 min. The tissue sections were then analysed with an in situ Cell Death Detection Kit, Fluorescein (Roche) following the manufacturer's instructions. Then, slides were incubated with Hoechst for 5 min in darkness. The reaction was visualized under an epifluorescence Olympus microscope using 20× objective.
# [5] = Hakai-MDCK xenograft tumours, immunohistochemistry
# [6] = Hakai-MDCK xenograft, nude mice, 5 mg/kg
smiles,measurement,setting,value
"O=C(O)c1ccc(-n2nnnc2SCC(=O)c2ccc([N+](=O)[O-])cc2)cc1 [Hakin-1, 4-(5-[2-(4-nitrophenyl)-2-oxoethyl]thiol-1H-tetrazol-1-yl)benzoic acid]","cytotoxicity (cell viability, MTT)",[1],important inhibitory response
same,"sensitivity to treatment (cell viability, MTT)",[2],more resistant
same,cell proliferation (BrdU),[3],no effect was detected
same,cell migration,HT29 cells,important reduction of cell migration
same,micrometastasis in lung (quantitative PCR of HA-tagged Hakai DNA),"[4]; Hakai-MDCK xenograft mice, vs DMSO treated mice",significant reduction of micrometastasis
same,Cortactin expression (immunohistochemistry),[4]; Hakai-MDCK xenograft tumours,recovered
same,apoptosis (TUNEL assay),[4]; Hakai-MDCK xenograft tumours,does not affect cell apoptosis; also recorded: no effect on apoptosis was detected
same,mitotic-index,"[4]; Hakai-MDCK xenograft tumours, H&E",markedly reduce
same,number of Ki67-positive cells,[4]; [5],markedly reduce
same,number of blood vessels (CD31 angiogenic marker),[4]; [5],strong reduction on the number of blood vessels
same,N-cadherin mesenchymal marker expression (immunohistochemistry),"[4]; Hakai-MDCK xenograft tumours, vs DMSO treated mice",strongly reduced
same,tumour cell morphology (H&E),[4]; [6],induction of tumour differentiation and an increase in cytoplasm size
same,tumour-cell infiltration in blood vessels (H&E),[4]; [6],no infiltration was detected
same,xenograft tumour growth,"[4]; Hakai-MDCK xenograft, nude mice, 5 mg/kg every 3 days, vs DMSO, 5 mg/kg",inhibits tumour growth; also recorded: potent effect on inhibiting xenograft tumour growth; also recorded: strong antitumor effect; also recorded: inhibited tumor growth
same,tissue damage / systemic toxicity (H&E of organs),"[4]; nude mice treated with 5 mg/kg, 5 mg/kg",Intact cell morphology and tissue structure of liver and kidney; also recorded: no damage was observed in lung and kidney tissues; also recorded: apparently without systemic toxicity
